In the METLIN SMRT retention time set (Domingo-Almenara et al. 2019):

Assay: gradient 5% acetonitrile 3 min, to 50% in 2 min, to 85% in 15 min, held 3 min, 100 µL/min
Conditions: column: Zorbax Extend-C18 2.1 x 50 mm; eluents: water / acetonitrile, 0.1% formic acid
Method in brief: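 Standards, all pure, were combined into mixtures of ~100 molecules and run at 100 μL/min on a Zorbax Extend-C18 column (2.1 × 50 mm, 1.8 μm) with water and acetonitrile, each containing 0.1% formic acid. A coupled quadrupole time-of-flight mass spectrometer operated in positive and negative ionization mode. Retention time values come from computationally picked adduct peaks, each inspected manually.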

RP-LC retention time	Structure (SMILES)
658 s	O=C(NCc1n[nH]c(=O)c2ccccc12)C(=O)N1CCN(c2ccccc2)CC1
933 s	Cc1ccc2c(c1)c(C)c(C)n2CC(O)Cn1nc(C)cc1C (centres undefined)
667 s	O=C(Nc1ccc2c(c1)OCCO2)C1CCN(c2cc(N3CCCCC3)ncn2)CC1
855 s	CC(C)N1C(=O)Cc2ccccc2C1C(=O)N1CCN(c2ccccc2)CC1 (centres undefined)
816 s	CCN1C(=O)c2cccnc2Sc2cc(NC(=O)Cc3ccc(F)cc3)ccc21
1040 s	COc1cc(OC)cc(-c2nnc(Cc3nc(-c4ccc(F)cc4)no3)o2)c1
714 s	O=C(Nc1cnn(-c2ncncc2N2CCOCC2)c1)c1ccc(C(F)(F)F)cc1
1170 s	O=C(NCc1ccccc1)c1cc2sccc2n1Cc1ccc(Cl)cc1
774 s	O=C(c1csc(Nc2ccc(OC(F)F)cc2)n1)N1CCN(c2ncccn2)CC1
636 s	CCN1CCN(S(=O)(=O)c2cc(-c3nnc(-c4ccccc4)o3)ccc2OC)CC1
816 s	CCOc1ccc(NC(=O)C2CCCN(c3ncnc4c3oc3ccccc34)C2)cc1 (centres undefined)
1000 s	COc1ccc(N2C(=O)C3N=NN(Cc4nc(-c5ccc(Cl)cc5)no4)C3C2=O)cc1 (centres undefined)
683 s	COc1ccc(C(=O)N2CCC3(C2)C(=O)Nc2ccccc23)cc1 (centres undefined)
1310 s	Cc1cc(Cl)ccc1OCC(=O)Nc1nc(-c2ccc(Br)cc2)cs1
574 s	Cc1noc(CNC(=O)C2CCN(C(=O)c3ccc4ncsc4c3)CC2)n1
591 s	COc1ccc(-n2nc3c(N4CCCC(C(=O)NCc5ccccn5)C4)nnc(C)c3c2C)cc1 (centres undefined)
743 s	Cc1c(C(=O)NCC(C)C)c(C)n2cnn(CC(=O)NCCc3ccccc3)c(=O)c12
766 s	Cn1nc(C(=O)N2C[C@@H]3C[C@H]2C[C@@H]3NC(=O)c2cccs2)c2ccccc21
791 s	CCc1noc(NC(C)=O)c1-c1ccc(OC)c(S(=O)(=O)Nc2ccccc2OC)c1
663 s	CCc1ccc(CNC(=O)c2ccc3c(c2)N(C)C(=O)C2CCCCN32)cc1 (centres undefined)
694 s	Cn1c(C2CCN(C(=O)Nc3ccc(Br)cc3F)CC2)cc(=O)n2nccc12
1050 s	CC1Oc2ccccc2OC1C(=O)Nc1cccc(C(F)(F)F)c1 (centres undefined)

RP-LC retention time	Structure (SMILES)
669 s	Cc1noc(-c2ccc(=O)n(CC(=O)NC3CCc4ccccc43)c2)n1 (centres undefined)
656 s	O=C(NCCCN1CCCC1=O)c1nc2ccccn2c1-c1ccc(F)cc1
792 s	Cc1ccnc(N2CCCC(C(=O)NCc3ccc(F)cc3Cl)C2)n1 (centres undefined)
719 s	CCC(=O)N1CCC(COc2ccc(C(=O)NC(C)C)cc2)CC1
618 s	O=C(CSc1ccc(-n2ccnc2)nn1)Nc1ccc(OC(F)(F)F)cc1
797 s	COc1ccc(-c2cn3c(CC(=O)N4c5ccccc5CC4C)csc3n2)cc1OC (centres undefined)
849 s	CCCC(=O)NCCc1c(I)[nH]c2ccc(OC)cc12
724 s	CNS(=O)(=O)c1ccc(C(=O)N2CCc3ccccc3C2)o1
1090 s	COc1cccc(-c2cc3c(=O)n(Cc4nc(-c5ccc(F)c(Br)c5)no4)ccn3n2)c1
954 s	CCc1ccccc1NS(=O)(=O)c1ccc(CN2C(=O)c3ccccc3C2=O)cc1
924 s	CCN1C(=O)c2cc(S(=O)(=O)Nc3ccccc3F)ccc2Oc2cccnc21
660 s	CCN1CCn2c(nc3cc(C(=O)NCc4ccc5c(c4)OCO5)ccc32)C1=O
948 s	Cc1ccc(S(=O)(=O)N2CC(=O)N(c3cccc(F)c3)C(C)(C(=O)NCc3ccccc3)C2)cc1 (centres undefined)
780 s	COCCc1noc(C2CN(S(=O)(=O)Cc3ccccc3)C2)n1
537 s	CCN1CCN(c2ncc(N3CCC(C(=O)NCCN4CCCCC4C)CC3)cn2)CC1 (centres undefined)
795 s	CC(C)CC(=O)N1CCc2[nH]nc(C(=O)NCCCc3ccccc3)c2C1
666 s	Cc1noc(C)c1CCC(=O)N1CCC(c2nnc(-c3ccco3)s2)CC1
784 s	O=C(Nc1cc(F)ccc1F)C1CCN(S(=O)(=O)c2cccnc2)CC1
861 s	CCS(=O)(=O)N1CC(=O)N(c2cc(C)ccc2C)C(C)(C(=O)NCc2ccc(F)cc2)C1 (centres undefined)
1100 s	Cc1oc(-c2ccccc2)nc1CN1C(=O)C(O)(c2cccc(F)c2)c2ccccc21 (centres undefined)
1130 s	Cc1cc(C(=O)Nc2ccc(F)cc2F)nc2cc(-c3ccco3)nn12
801 s	CCn1ccc(NC(=O)Nc2ccccc2C)n1

RP-LC retention time	Structure (SMILES)
770 s	CCOc1cccc(-c2noc(Cn3ccn4nc(-c5cccc(OC)c5)cc4c3=O)n2)c1
715 s	COC[C@@H]1CN(S(=O)(=O)c2cccc(C#N)c2)C[C@H]1c1ccccn1
856 s	Cc1ccc(CNC(=O)C2(C)CN(S(C)(=O)=O)CC(=O)N2CCc2ccccc2)cc1 (centres undefined)
587 s	Cc1ccc(-c2cc3c4nnc(CCC(=O)NC5CCCCCC5)n4ccn3n2)cc1C
618 s	CCC1CCCCN1C(=O)CN1CCn2c1nc(C)c(C)c2=O (centres undefined)
909 s	Cc1ccc(-c2ncc(C(=O)NCc3ccccc3C)c(-c3ccncc3)n2)cc1
625 s	COc1ccc(Cl)cc1NC(=O)N1CCN(CCn2cnc3cccnc32)CC1
706 s	CCN1C(=O)Cc2cc(C(=O)NCc3ccccc3)ccc21
600 s	CC(C)(C)C(=O)NCc1cccnc1-c1ccccc1
684 s	O=C(NC1CCCCCC1)c1ccnc(N2CCNC(c3ccccc3)C2)c1 (centres undefined)
817 s	CC(C)NC(=O)Cn1cnc2c(sc3nc(-c4ccccc4)ccc32)c1=O
559 s	O=C(NCc1ccccn1)C1CCN(c2cc(N3CCSCC3)ncn2)CC1
673 s	Cc1c(CC(=O)NC(C)C)c(=O)n2nc(-c3ccccc3)nc2n1C
650 s	COc1cc(-c2nc3ccccn3c2Nc2ccccc2C)ccc1O
629 s	Nc1nc(N2CCN(C3CCCCC3)CC2)ncc1C(=O)NCc1ccccc1F
1090 s	COc1ccccc1N1CCN(c2cc(SCC(=O)Nc3ccc(F)c(Cl)c3)ncn2)CC1
604 s	CCCNC(=O)C1CCN(c2nc3ccc(-c4cccnc4)nc3s2)CC1
572 s	COc1cccc(CN2CCC3(CCC3O)CC2)c1OC (centres undefined)
651 s	COc1cccc(/C=C/c2nc(C#N)c(NCCCN(C)C)o2)c1
730 s	CCc1noc(-c2cccnc2N2CCCN(Cc3ccc(Br)cc3)CC2)n1
633 s	CCC(C)NC(=O)C1CCN(C(=O)c2cc3ccsc3n2Cc2cccc(OC)c2)CC1 (centres undefined)
1040 s	CCOc1ccc(-c2noc(Cc3nnc(-c4ccccc4)o3)n2)cc1

RP-LC retention time	Structure (SMILES)
959 s	Cc1nc(-c2ccc3c(c2)CCN3C(=O)c2n[nH]c3ccccc23)cs1
755 s	Cc1ccccc1OCC(=O)NC[C@@]12CCC[C@H]1N(C)C(=O)CC2
582 s	CC(C)n1cnc2cc(CNC(=O)c3ccnn3C)ccc21
680 s	O=S(=O)(NCC1CCCO1)c1cccc2cccnc12 (centres undefined)
596 s	O=S(=O)(c1ccc(-n2cnnn2)cc1)N1CCN(c2ccccn2)CC1
665 s	COc1ccc(-c2ccc3nc(N4CCC(C(=O)NCCN(C)C)CC4)sc3n2)cc1
963 s	O=c1ccn(-c2ccc(Cl)cc2)nc1-c1nc(-c2ccccc2Cl)no1
577 s	O=S(=O)(c1cccnc1)N1CC[C@@H]2COCCN(Cc3cccnc3)[C@@H]2C1
1060 s	CCOc1ccc(CC(=O)N2CCc3cc(-c4csc(C)n4)ccc32)cc1
1080 s	COc1ccccc1C(=O)NC1(C(F)(F)F)C(=O)N(C2CCCCC2)C(C)=C1C(C)=O (centres undefined)
663 s	CCc1ccccc1NS(=O)(=O)c1cc2n(c1)CCCNC2=O
707 s	CCc1nnc2ccc(S(=O)(=O)Nc3ccc(F)cc3)cn12
936 s	COC(=O)c1ccc2c(=O)n(Cc3cccc(OC)c3)c(N3CCOCC3)nc2c1
610 s	CC(CCc1ccccc1)NCc1ccc2c(c1)n(C)c(=O)n2C (centres undefined)
1000 s	Cc1nnc2ccc(N3CCC(C)CC3)nn12
567 s	CN(C)C[C@@H]1CN(c2ccccn2)C[C@H]1NC(=O)c1ccc2ccccc2n1
747 s	Cc1ccc(S(=O)(=O)N2CCC(c3nc(C(=O)N4CCCC4)c(C)o3)CC2)cc1C
806 s	Cc1ccc(S(=O)(=O)N2CCC(c3cc4n(n3)CCCN(C)C4=O)CC2)cc1C
1010 s	Cc1[nH]c(-c2ccc(Cl)cc2)cc1C(=O)N1CCC(C)CC1
949 s	CCOc1ccc(-c2cn3ccn(-c4ccc(C)c(C)c4)c(=O)c3n2)cc1
608 s	Cc1cnc(C2CN(C(=O)c3cccn3C)C2)n1CC1CC1
954 s	CSc1ccc(-c2nc3ccc(Cl)cn3c2Nc2ccccc2C)cc1

Structure (SMILES)	RP-LC retention time
O=C(c1cnccn1)N1[C@H]2CC[C@@H]1c1cnc(-c3ccccc3)nc1C2	807 s
